{
  "source": "patent US8333981B2",
  "about": "“Antifungal treatment of nails” (Humco Holding Group, Inc., priority 2007, dated 2012)",
  "origin": "cited, not measured here",
  "key": {"[1]": {"tested_on": "toenail fungus"}, "[2]": {"tested_on": "onychomycosis of fingernails and toenails due to Trichophyton rubrum", "conditions": "after several months of use"}, "[3]": {"tested_on": "dermatophyte isolates"}, "[4]": {"tested_on": "C. albicans (monilia), C. neoformans, B. dermatitidis, A. israelii, H. capsulatum, C. immitis, M. furfur (tinea versicolor) and bacteria"}, "[5]": {"tested_on": "chronic infections of the nails", "conditions": "human, in vivo"}, "[6]": {"tested_on": "fungi known to cause onychomycosis"}, "[7]": {"conditions": "in vitro"}, "[8]": {"conditions": "not told"}, "[9]": {"conditions": "not told", "remark": "listed apart in the source"}, "[10]": {"conditions": "human, in vivo"}, "[11]": {"conditions": "in vivo, po"}},
  "note": "Like-named read-outs stand apart in the source and are kept apart here.",
  "data": [
    {"smiles": "CC12CCC(CC1=O)C2(C)C", "note": "(centres unmarked) [Camphor]", "values": [
      {"measurement": "anti-fungal activity", "setting": "[1]", "result": "little or no detectable anti-fungal activity"}
    ]},
    {"smiles": "Cc1cc(C2CCCCC2)n(O)c(=O)c1", "note": "[Ciclopirox, ciclopirox]", "values": [
      {"measurement": "cure rate", "setting": "[2]", "result": 14, "unit": "%"}
    ]},
    {"smiles": "Clc1ccccc1C(c1ccccc1)(c1ccccc1)n1ccnc1", "note": "[Clotrimazole]", "values": [
      {"measurement": "dermatophyte isolates being sensitive", "setting": "[3]", "result": 30.55, "unit": "%"}
    ]},
    {"smiles": "COC1=CC(=O)C[C@@H](C)[C@]12Oc1c(Cl)c(OC)cc(OC)c1C2=O", "note": "[Griseofulvin, griseofulvin]", "values": [
      {"measurement": "activity against listed organisms", "setting": "[4]", "result": "inactive"},
      {"measurement": "cure rates", "setting": "[5]", "result": "poor cure rates"}
    ]},
    {"smiles": "CC1CCC(C(C)C)C(O)C1", "note": "(centres unmarked) [Menthol]", "values": [
      {"measurement": "effect on fungi causing onychomycosis / toenail infection", "setting": "[6]", "result": "specifically inhibits the growth"}
    ]},
    {"smiles": "O=C([O-])CS.[Na+]", "note": "[Sodium Thioglycolate]", "values": [
      {"measurement": "increase in flux compared to the control", "setting": "[7]", "result": 3.8, "unit": "fold"}
    ]},
    {"smiles": "Cc1ccc(C(C)C)c(O)c1", "note": "[Thymol]", "values": [
      {"measurement": "effect on fungi causing onychomycosis / toenail infection", "setting": "[6]", "result": "effective"}
    ]},
    {"smiles": "Cc1cccc(N(C)C(=S)Oc2ccc3ccccc3c2)c1", "note": "[Tolnaftate]", "values": [
      {"measurement": "dermatophyte isolates being sensitive", "setting": "[3]", "result": 47.22, "unit": "%"}
    ]},
    {"smiles": "NC(N)=O", "note": "[Urea]", "values": [
      {"measurement": "drug permeability compared to control", "setting": "[8]", "result": "significant increase"}
    ]},
    {"smiles": "Clc1ccc(COC(Cn2ccnc2)c2ccc(Cl)cc2Cl)c(Cl)c1", "note": "(centres unmarked) [Water-soluble miconazole, miconazole]", "values": [
      {"measurement": "dermatophyte isolates being sensitive", "setting": "[3]", "result": 75, "unit": "%"}
    ]},
    {"smiles": "CCO", "note": "[ethanol]", "values": [
      {"measurement": "average permeability coefficient", "setting": "[9]", "result": "5.8+/−3.1×10(−3) cm hr-1"}
    ]},
    {"smiles": "OC(Cn1cncn1)(Cn1cncn1)c1ccc(F)cc1F", "note": "[fluconazole]", "values": [
      {"measurement": "patients who experienced adverse events", "setting": "[10]", "result": "Sixteen"}
    ]},
    {"smiles": "CCC(C)n1ncn(-c2ccc(N3CCN(c4ccc(OCC5COC(Cn6cncn6)(c6ccc(Cl)cc6Cl)O5)cc4)CC3)cc2)c1=O", "note": "(centres unmarked) [itraconazole]", "values": [
      {"measurement": "total observed incidence of adverse events possibly or directly drug-related", "setting": "[11]", "result": 18.2, "unit": "%"}
    ]},
    {"smiles": "CCCCCCCCO", "note": "[n-octanol]", "values": [
      {"measurement": "permeability coefficient", "result": 0.075, "unit": "×10⁻⁶ cm/s"}
    ]},
    {"smiles": "O", "note": "[water]", "values": [
      {"measurement": "permeability coefficient", "setting": "not told", "result": 4.58, "unit": "×10⁻⁶ cm/s"},
      {"measurement": "average permeability coefficient", "setting": "[9]", "result": "16.5+/−5.9×10(−3) cm hr-1"}
    ]}
  ]
}
